In the supplement of paper PMC13380429:

Columns and labels:
Conditions in all cases: 72 h
U2OS [1] = experiment: drug sensitivity score (DSS) for viability; higher = more toxic; extreme values may be limits of the assay
HepG2 [2] = experiment: as above
Calu-3 [3] = experiment: as above
Vero E6 [4] = experiment: as above
U2OS [5] = experiment: cell viability relative to DMSO; higher = less toxic
HepG2 [6] = experiment: as above
Calu-3 [7] = experiment: as above
Vero E6 [8] = experiment: as above
U2OS [9] = experiment: relative viability EC50 (midpoint between 100% and the lowest measured viability); higher = less toxic
HepG2 [10] = experiment: as above
Calu-3 [11] = experiment: as above
Vero E6 [12] = experiment: as above
Caco-2 [13] = experiment: cell viability relative to DMSO; higher = less toxic
Caco-2 [14] = experiment: drug sensitivity score (DSS) for viability; higher = more toxic; extreme values may be limits of the assay

| SMILES | drug sensitivity score (U2OS [1]) | drug sensitivity score (HepG2 [2]) | drug sensitivity score (Calu-3 [3]) | drug sensitivity score (Vero E6 [4]) | cell viability (U2OS [5]; 1 nM) [%] | cell viability (U2OS [5]; 10 nM) [%] | cell viability (U2OS [5]; 100 nM) [%] | cell viability (U2OS [5]; 1000 nM) [%] | cell viability (U2OS [5]; 10000 nM) [%] | cell viability (HepG2 [6]; 1 nM) [%] | cell viability (HepG2 [6]; 10 nM) [%] | cell viability (HepG2 [6]; 100 nM) [%] | cell viability (HepG2 [6]; 1000 nM) [%] | cell viability (HepG2 [6]; 10000 nM) [%] | cell viability (Calu-3 [7]; 1 nM) [%] | cell viability (Calu-3 [7]; 10 nM) [%] | cell viability (Calu-3 [7]; 100 nM) [%] | cell viability (Calu-3 [7]; 1000 nM) [%] | cell viability (Calu-3 [7]; 10000 nM) [%] | cell viability (Vero E6 [8]; 1 nM) [%] | cell viability (Vero E6 [8]; 10 nM) [%] | cell viability (Vero E6 [8]; 100 nM) [%] | cell viability (Vero E6 [8]; 1000 nM) [%] | cell viability (Vero E6 [8]; 10000 nM) [%] | relative viability EC50 (U2OS [9]) [µM] | relative viability EC50 (HepG2 [10]) [µM] | relative viability EC50 (Calu-3 [11]) [µM] | relative viability EC50 (Vero E6 [12]) [µM] | cell viability (Caco-2 [13]; 1 nM) [%] | cell viability (Caco-2 [13]; 10 nM) [%] | cell viability (Caco-2 [13]; 100 nM) [%] | cell viability (Caco-2 [13]; 1000 nM) [%] | cell viability (Caco-2 [13]; 10000 nM) [%] | drug sensitivity score (Caco-2 [14]) |
| --- | --- | --- | --- | --- | --- | --- | --- | --- | --- | --- | --- | --- | --- | --- | --- | --- | --- | --- | --- | --- | --- | --- | --- | --- | --- | --- | --- | --- | --- | --- | --- | --- | --- | --- |
| COc1ccc(-c2oc3c(CC=C(C)C)c(O[C@@H]4O[C@H](CO)[C@@H](O)[C@H](O)[C@H]4O)cc(O)c3c(=O)c2O[C@@H]2O[C@@H](C)[C@H](O)[C@@H](O)[C@H]2O)cc1 [icariin] | 0 | 0 | 0 | 0 | – | – | – | – | – | – | – | – | – | – | – | – | – | – | – | – | – | – | – | – | – | – | – | – | – | – | – | – | – | – |
| COC(=O)CCC(=O)CN [methyl-aminolevulinate] | 0 | 0 | 0 | 0 | 90.5 | 96 | 96.8 | 97.3 | 104 | 83.8 | 98.4 | 94.5 | 84 | 87.8 | 101 | 96.5 | 98 | 100 | 93.4 | 97.1 | 89 | 99.5 | 88.8 | 105 | > 10 | > 10 | > 10 | > 10 | – | – | – | – | – | – |
| Cn1cnc2c(F)c(Nc3ccc(Br)cc3F)c(C(=O)NOCCO)cc21 [binimetinib] | 4.1 | 23.5 | 14.1 | 11.5 | 97.9 | 91.4 | 92 | 93.4 | 43.9 | 96 | 83.6 | 38 | 23.7 | 20.8 | 94.7 | 77.5 | 66.4 | 59.9 | 37.2 | 97.2 | 92.4 | 72.6 | 56.5 | 51.2 | 2.2 | 0.0323 | 0.078 | – | 94 | 87.3 | 77.2 | 73 | 65.6 | 8.1 |
| N#C/C(=C\c1ccc(O)c(O)c1)C(=O)NCCCc1ccccc1 [AG-555] | 0 | 1.7 | 0 | 0.5 | 99 | 99.5 | 103 | 99.1 | 88.7 | 95.5 | 89.9 | 95.8 | 95.4 | 74.7 | 112 | 95.2 | 101 | 105 | 88.4 | 102 | 102 | 103 | 103 | 79.7 | > 10 | – | > 10 | > 10 | 96.7 | 100 | 113 | 84.1 | 68.1 | 3.4 |
| CC(C)(C)NC(=O)[C@@H]1C[C@@H]2CCCC[C@@H]2CN1C[C@@H](O)[C@H](Cc1ccccc1)NC(=O)[C@H](CC(N)=O)NC(=O)c1ccc2ccccc2n1 [saquinavir] | 0 | 1 | 0 | 0 | 101 | 101 | 100 | 103 | 89.8 | 91.8 | 90.1 | 100 | 82.2 | 84.3 | 96.8 | 104 | 93.2 | 102 | 109 | 103 | 101 | 104 | 85.1 | 101 | > 10 | > 10 | > 10 | > 10 | 101 | 87.9 | 95.7 | 90.4 | 72.4 | 1.9 |
| COc1cc(N2CCC(N3CCN(C)CC3)CC2)ccc1Nc1ncc(Cl)c(Nc2ccccc2P(C)(C)=O)n1 [brigatinib] | 1.9 | 4.8 | 5.3 | 1.4 | 97.2 | 99.5 | 97.4 | 98.4 | 64.8 | 98.1 | 92.8 | 105 | 81.7 | 55 | 105 | 102 | 106 | 89.5 | 35.3 | 98.7 | 102 | 101 | 94.5 | 78.5 | – | – | 1.92 | > 10 | 94.9 | 97 | 92.8 | 94 | 73 | 1.8 |
| CCCSc1ccc2[nH]c(NC(=O)OC)nc2c1 [albendazole] | 4.9 | 7.8 | 2.4 | 6.5 | 101 | 100 | 94.5 | 81.1 | 47.8 | 103 | 97.9 | 85.6 | 68.7 | 33.1 | 107 | 102 | 111 | 94.7 | 66.4 | 105 | 95.3 | 104 | 80.1 | 34.6 | 1.37 | 0.824 | – | 1.39 | 87.7 | 98.6 | 96.9 | 88 | 66.7 | 2.8 |
| N#CC(=C(/N)Sc1ccccc1N)/C(C#N)=C(/N)Sc1ccccc1N [U-0126] | 0.4 | 6.6 | 0 | 1.3 | 98.2 | 104 | 96.9 | 98.3 | 84.3 | 101 | 95.9 | 94.7 | 70.6 | 41 | 94.6 | 102 | 100 | 90.6 | 93.5 | 102 | 99.9 | 97.9 | 88.6 | 80.9 | > 10 | 0.953 | > 10 | > 10 | 100 | 96.8 | 99.3 | 86.4 | 65 | 3.4 |
| CC(C)CCN1c2nc(Nc3cc(F)c(O)c(F)c3)ncc2N(C)C(=O)[C@@H]1C [BI-D1870] | 1.4 | 2.4 | 3.5 | 6.1 | 102 | 103 | 99 | 98.7 | 71.4 | 105 | 92.8 | 102 | 97.6 | 58.9 | 96 | 107 | 90.2 | 83.7 | 63.1 | 105 | 98.7 | 96.5 | 86.2 | 30.9 | – | – | – | 1.74 | 95.1 | 102 | 97.5 | 96.6 | 71.1 | 1.8 |
| FC(F)(F)c1cc(NC(=S)Nc2ccc(Br)cc2-c2nnn[nH]2)cc(C(F)(F)F)c1 | 0 | 0.2 | 0 | 0.3 | 99.9 | 104 | 97.7 | 97.6 | 97.5 | 99.3 | 92.7 | 98.7 | 90.4 | 85.6 | 98.8 | 102 | 101 | 103 | 99.3 | 95.8 | 102 | 93.3 | 102 | 83 | > 10 | > 10 | > 10 | > 10 | 96.6 | 106 | 95.3 | 88.7 | 57.9 | 3.7 |
| CCN1CCN(C(=O)Cc2ccc(Nc3ncc(F)c(Nc4ccc(C(=O)Nc5ccccc5Cl)cc4)n3)cc2)CC1 [aurora-a-inhibitor-i] | 5 | 2.7 | 0.7 | 0.4 | 100 | 99.8 | 99.2 | 99.1 | 12 | 91.2 | 90.7 | 89.6 | 93.9 | 64.8 | 101 | 103 | 109 | 94.8 | 84.5 | 97 | 106 | 99.6 | 93.4 | 86.8 | 3.09 | – | > 10 | > 10 | 101 | 93.4 | 95.5 | 98 | 74.9 | 1.2 |
| CC(C)(C)c1ccc(NC(=O)N2CCN(c3ncccc3Cl)CC2)cc1 [BCTC] | 0 | 0 | 1.1 | 0.5 | 99.3 | 106 | 97.4 | 101 | 95 | 99.3 | 92.7 | 96.7 | 102 | 93.3 | 98.1 | 101 | 99.5 | 102 | 71.2 | 99 | 101 | 100 | 94.4 | 86.1 | > 10 | > 10 | – | > 10 | 88.8 | 99.6 | 92.8 | 89.9 | 62.2 | 3 |
| O=C(c1cn(Cc2cncn2Cc2ccc(Br)cc2)cc1-c1cccc2ccccc12)N1CCOCC1 | 5.5 | 9.8 | 5.6 | 2.9 | 97.3 | 99.4 | 90.5 | 80.3 | 39.9 | 107 | 90.6 | 98.3 | 57.1 | 16.3 | 104 | 96.7 | 98.6 | 68.1 | 72.1 | 99.8 | 97.7 | 95.4 | 88.1 | 64.5 | 1.49 | 0.972 | – | – | 99.1 | 96.1 | 94.4 | 78.1 | 63.5 | 4.3 |
| CCNC(=O)[C@@H]1CCCN1C(=O)[C@H](CCCNC(=N)N)NC(=O)[C@H](CC(C)C)NC(=O)[C@@H](CC(C)C)NC(=O)[C@H](Cc1ccc(O)cc1)NC(=O)[C@H](CO)NC(=O)[C@H](Cc1c[nH]c2ccccc12)NC(=O)[C@H](Cc1c[nH]cn1)NC(=O)[C@@H]1CCC(=O)N1 [leuprolide] | 0 | – | 0 | 0 | 92.6 | 96.9 | 103 | 97 | 102 | – | – | – | – | – | 99.5 | 99.3 | 95 | 110 | 103 | 102 | 99.3 | 98.6 | 105 | 105 | > 10 | – | > 10 | > 10 | 107 | 114 | 107 | 114 | 72.2 | 0.7 |
